# Tests used:
# Test in all cases: relative viability (nuclei count vs DMSO), 5 days (fraction); higher = more cells survive
# [1] = test system: NCI-H1666
# Method in brief: (§1)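 Relative viability equals treated-well nuclei counts divided by vehicle-well nuclei counts. Counts came from 4× images of lung cancer cell lines grown in 1536-well plates for 5 days after pin-tool dosing on the day after seeding. Dosing used one drug alone or a fixed anchor-drug dose plus five library-drug doses (not always all listed) in √10 steps, and values are medians of duplicate plates.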
# [2] = test system: PC-14
# Method in brief: as §1
# [3] = test system: BEN
# Method in brief: as §1
# [4] = test system: NCI-H520
# Method in brief: as §1
# [5] = test system: ABC-1
# Method in brief: as §1
# [6] = test system: NCI-H358
# Method in brief: as §1
# [7] = test system: NCI-H23
# Method in brief: as §1
# [8] = test system: NCI-H596
# Method in brief: as §1
# [9] = test system: NCI-H2405
# Method in brief: as §1
# [10] = test system: NCI-H1975
# Method in brief: as §1
# [11] = test system: HOP-62
# Method in brief: as §1
# [12] = test system: HCC-827
# Method in brief: as §1
# [13] = test system: NCI-H3122
# Method in brief: as §1
# [14] = test system: NCI-H2170
# Method in brief: as §1
# [15] = test system: NCI-H1792
# Method in brief: as §1
# [16] = test system: EPLC-272H
# Method in brief: as §1
# [17] = test system: UMC-11
# Method in brief: as §1
# [18] = test system: NCI-H727
# Method in brief: as §1
# [19] = test system: NCI-H322M
# Method in brief: as §1
# [20] = test system: LU99A
# Method in brief: as §1
# [21] = test system: NCI-H647
# Method in brief: as §1
# [22] = test system: NCI-H838
# Method in brief: as §1
# [23] = test system: NCI-H1355
# Method in brief: as §1
smiles,measurement,setting,value
O=c1[nH]c2ccccc2n1C1CCN(CCCC(c2ccc(F)cc2)c2ccc(F)cc2)CC1 [Pimozide] + CCNC(=O)c1noc(-c2cc(C(C)C)c(O)cc2O)c1-c1ccc(CN2CCOCC2)cc1 [Luminespib] (partner 0.01 µM),relative viability,[1]; first compound 0.08 µM,0.922
same,relative viability,[1]; first compound 0.253 µM,1.03
same,relative viability,[1]; first compound 0.8 µM,0.979
same,relative viability,[1]; first compound 2.53 µM,0.942
same,relative viability,[1]; first compound 8 µM,0.932
same,relative viability,[2]; first compound 0.253 µM,0.181
same,relative viability,[2]; first compound 2.53 µM,0.15
same,relative viability,[2]; first compound 8 µM,0.111
same,relative viability,[3]; first compound 0.08 µM,0.3
same,relative viability,[3]; first compound 0.253 µM,0.413
same,relative viability,[3]; first compound 0.8 µM,0.324
same,relative viability,[3]; first compound 2.53 µM,0.368
same,relative viability,[3]; first compound 8 µM,0.331
same,relative viability,[4]; first compound 0.08 µM,0.227
same,relative viability,[4]; first compound 0.253 µM,0.219
same,relative viability,[4]; first compound 0.8 µM,0.194
same,relative viability,[4]; first compound 2.53 µM,0.227
same,relative viability,[4]; first compound 8 µM,0.219
same,relative viability,[5]; first compound 0.08 µM,0.75
same,relative viability,[5]; first compound 0.253 µM,0.519
same,relative viability,[5]; first compound 0.8 µM,0.367
same,relative viability,[5]; first compound 2.53 µM,0.675
same,relative viability,[5]; first compound 8 µM,0.433
same,relative viability,[6]; first compound 0.08 µM,0.317
same,relative viability,[6]; first compound 0.253 µM,0.382
same,relative viability,[6]; first compound 0.8 µM,0.333
same,relative viability,[6]; first compound 2.53 µM,0.399
same,relative viability,[6]; first compound 8 µM,0.206
same,relative viability,[7]; first compound 0.08 µM,0.236
same,relative viability,[7]; first compound 0.8 µM,0.241
same,relative viability,[7]; first compound 2.53 µM,0.195
same,relative viability,[7]; first compound 8 µM,0.218
same,relative viability,[8]; first compound 0.08 µM,0.97
same,relative viability,[8]; first compound 0.253 µM,1.11
same,relative viability,[8]; first compound 0.8 µM,1.11
same,relative viability,[8]; first compound 2.53 µM,0.776
same,relative viability,[8]; first compound 8 µM,0.847
same,relative viability,[9]; first compound 0.08 µM,0.654
same,relative viability,[9]; first compound 0.253 µM,0.717
same,relative viability,[9]; first compound 0.8 µM,0.618
same,relative viability,[9]; first compound 2.53 µM,0.559
same,relative viability,[9]; first compound 8 µM,0.315
same,relative viability,[10]; first compound 0.08 µM,0.213
same,relative viability,[10]; first compound 0.253 µM,0.337
same,relative viability,[10]; first compound 0.8 µM,0.384
same,relative viability,[10]; first compound 2.53 µM,0.239
same,relative viability,[10]; first compound 8 µM,0.18
same,relative viability,[11]; first compound 0.08 µM,0.995
same,relative viability,[11]; first compound 0.253 µM,0.875
same,relative viability,[11]; first compound 0.8 µM,0.709
same,relative viability,[11]; first compound 2.53 µM,0.904
same,relative viability,[11]; first compound 8 µM,0.873
same,relative viability,[12]; first compound 0.253 µM,0.58
same,relative viability,[12]; first compound 0.8 µM,0.413
same,relative viability,[12]; first compound 2.53 µM,0.625
same,relative viability,[12]; first compound 8 µM,0.582
same,relative viability,[13]; first compound 0.08 µM,0.109
same,relative viability,[13]; first compound 0.253 µM,0.0961
same,relative viability,[13]; first compound 0.8 µM,0.105
same,relative viability,[13]; first compound 2.53 µM,0.0832
same,relative viability,[13]; first compound 8 µM,0.0656
same,relative viability,[14]; first compound 0.08 µM,0.527
same,relative viability,[14]; first compound 0.253 µM,0.73
same,relative viability,[14]; first compound 0.8 µM,0.779
same,relative viability,[14]; first compound 2.53 µM,0.624
same,relative viability,[14]; first compound 8 µM,0.671
same,relative viability,[15]; first compound 0.08 µM,0.525
same,relative viability,[15]; first compound 0.253 µM,0.424
same,relative viability,[15]; first compound 0.8 µM,0.403
same,relative viability,[15]; first compound 2.53 µM,0.477
same,relative viability,[15]; first compound 8 µM,0.498
same,relative viability,[16]; first compound 0.08 µM,0.622
same,relative viability,[16]; first compound 0.253 µM,0.557
same,relative viability,[16]; first compound 0.8 µM,0.185
same,relative viability,[16]; first compound 2.53 µM,0.244
same,relative viability,[16]; first compound 8 µM,0.206
same,relative viability,[17]; first compound 0.08 µM,1.2
same,relative viability,[17]; first compound 0.253 µM,1.03
same,relative viability,[17]; first compound 0.8 µM,0.976
same,relative viability,[17]; first compound 2.53 µM,1.11
same,relative viability,[17]; first compound 8 µM,1.18
same,relative viability,[18]; first compound 0.08 µM,0.321
same,relative viability,[18]; first compound 0.253 µM,0.3
same,relative viability,[18]; first compound 0.8 µM,0.297
same,relative viability,[18]; first compound 2.53 µM,0.593
same,relative viability,[18]; first compound 8 µM,0.25
same,relative viability,[19]; first compound 0.253 µM,0.899
same,relative viability,[19]; first compound 0.8 µM,0.858
same,relative viability,[19]; first compound 2.53 µM,0.942
same,relative viability,[19]; first compound 8 µM,0.743
same,relative viability,[20]; first compound 0.08 µM,0.242
same,relative viability,[20]; first compound 0.253 µM,0.247
same,relative viability,[20]; first compound 0.8 µM,0.263
same,relative viability,[20]; first compound 2.53 µM,0.242
same,relative viability,[20]; first compound 8 µM,0.233
same,relative viability,[21]; first compound 0.08 µM,0.095
same,relative viability,[21]; first compound 0.253 µM,0.0882
same,relative viability,[21]; first compound 0.8 µM,0.196
same,relative viability,[21]; first compound 2.53 µM,0.096
same,relative viability,[21]; first compound 8 µM,0.109
same,relative viability,[22]; first compound 0.08 µM,0.263
same,relative viability,[22]; first compound 0.253 µM,0.379
same,relative viability,[22]; first compound 0.8 µM,0.309
same,relative viability,[22]; first compound 2.53 µM,0.296
same,relative viability,[22]; first compound 8 µM,0.244
same,relative viability,[23]; first compound 0.08 µM,0.728
same,relative viability,[23]; first compound 0.253 µM,0.63
same,relative viability,[23]; first compound 0.8 µM,0.633
same,relative viability,[23]; first compound 2.53 µM,0.557
same,relative viability,[23]; first compound 8 µM,0.642

# Reference: the supplement of paper PMC10307832
